# Test results reported in patent publication US20060115815A1 (priority 2002, published 2006).
# Where “and” joins values, the source holds several entries; their conditions need not be identical. Equal entries are not always repeated.
# Tested on: wild-type HIV-1 strain IIIB
# Experiment: microbe, parasite or virus in culture
# Assay type: cell-based
# Conditions: read-out: EC50
row,SMILES,EC50
1,CCOP(=O)(COc1ccc(C[C@H](NC(=O)O[C@H]2CO[C@H]3OCC[C@H]32)[C@H](O)CN(CC(C)C)S(=O)(=O)c2ccc([N+](=O)[O-])cc2)cc1)OCC,< 50 nM
2,CCOC(=O)[C@H](C)OP(=O)(COc1ccc(C[C@H](NC(=O)O[C@H]2CO[C@H]3OCC[C@H]32)[C@H](O)CN(CC(C)C)S(=O)(=O)c2ccc(OC)cc2)cc1)Oc1cccc(CN2CCCCC2)c1 (stereo partly drawn) [drawing 660 R1=OPh-m-CH2Pip R2=(S)Lac-Et],50 to 500 nM
3,CCOC(=O)C(C)OP(=O)(COc1ccc(CC(NC(=O)OC2COC3OCCC23)C(O)CN(CC(C)C)S(=O)(=O)c2ccc(CN3CCOCC3)cc2)cc1)Oc1ccccc1 (centres unmarked),50 to 500 nM
4,"COc1ccc(S(=O)(=O)N(CC(C)C)C[C@@H](O)[C@H](Cc2ccc(OCP(=O)(Oc3ccccc3)OC(C)C(=O)OC(C)C)cc2)NC(=O)O[C@H]2CO[C@H]3OCC[C@H]32)cc1 (single isomer, unassigned) [drawing 658 R1=OPh R2=Lac-iPr]",< 50 nM
5,CC(C)CN(CC(O)C(Cc1ccc(OCP(=O)(OCc2ccccc2)OCc2ccccc2)cc1)NC(=O)OC1COC2OCCC12)S(=O)(=O)c1ccc(C=O)cc1 (centres unmarked),< 50 nM
6,"CCOC(=O)C(C)OP(=O)(CCNc1ccc(CC(NC(=O)OC2COC3OCCC23)C(O)CN(CC(C)C)S(=O)(=O)c2ccc(OC)cc2)cc1)Oc1ccccc1 (single isomer, unassigned) [drawing 706]",< 50 nM
7,COc1ccc(S(=O)(=O)N(CC(C)C)C[C@@H](O)[C@H](Cc2ccc(OCP(=O)(Oc3ccccc3)O[C@@H](C)C(=O)OCCCN3CCOCC3)cc2)NC(=O)O[C@H]2CO[C@H]3OCC[C@H]32)cc1 (stereo partly drawn) [drawing 659 R1=OPh R2=(S)Lac-PrMor],> 5000 nM
8,CCOC(=O)[C@H](C)OP(=O)(COc1ccc(C[C@H](NC(=O)O[C@H]2CO[C@H]3OCC[C@H]32)[C@H](O)CN(CC(C)C)S(=O)(=O)c2ccc(OC)cc2)cc1)ON(C)C (stereo partly drawn) [drawing 660 R1=ONMe2 R2=(S)Lac-Et],50 to 500 nM
9,COc1ccc(S(=O)(=O)N(CC(C)C)C[C@@H](O)[C@H](Cc2ccc(OCP(=O)(Oc3ccccc3)OC(C)C(=O)OCCN3CCOCC3)cc2)NC(=O)O[C@H]2CO[C@H]3OCC[C@H]32)cc1 (some centres unmarked) [drawing 658 R1=OPh R2=Lac-EtMor],> 5000 nM
10,CC(C)CN(C[C@@H](O)[C@H](Cc1ccc(OCP(=O)(O)O)cc1)NC(=O)O[C@H]1CO[C@H]2OCC[C@H]21)S(=O)(=O)c1ccc(O)cc1 [drawing 652 R1=OH R2=OH],500 to 5000 nM
11,CCOC(=O)[C@H](C)OP(=O)(COc1ccc(C[C@H](NC(=O)O[C@H]2CO[C@H]3OCC[C@H]32)[C@H](O)CN(CC(C)C)S(=O)(=O)c2ccc(OC)cc2)cc1)Oc1cccc(CN2CCOCC2)c1 (stereo partly drawn) [drawing 660 R1=OPh-m-CH2Mor R2=(S)Lac-Et],50 to 500 nM
12,CCOC(=O)C(C)OP(=O)(COc1ccc(CC(NC(=O)OC2COC3OCCC23)C(O)CN(CC(C)C)S(=O)(=O)c2ccc(C=O)cc2)cc1)Oc1ccccc1 (centres unmarked),< 50 nM
13,CCOC(=O)C(C)OP(=O)(COc1ccc(CC(NC(=O)OC2COC3OCCC23)C(O)CN(CC(C)C)S(=O)(=O)c2ccc(OC)cc2)cc1)OCC (centres unmarked) [drawing 658 R1=OEt R2=Lac-Et],50 to 500 nM
14,CCCCc1ccc(OP(=O)(COc2ccc(C[C@H](NC(=O)O[C@H]3CO[C@H]4OCC[C@H]43)[C@H](O)CN(CC(C)C)S(=O)(=O)c3ccc(OC)cc3)cc2)O[C@@H](C)C(=O)OCC)cc1 (stereo partly drawn) [drawing 660 R1=OPh—p-n-But R2=(S)Lac-Et],< 50 nM
15,CCOC(=O)C(C)OP(=O)(CN1CC=C(CC(NC(=O)OC2COC3OCCC23)C(O)CN(CC(C)C)S(=O)(=O)c2ccc(OC)cc2)CC1)Oc1ccccc1 (centres unmarked),> 5000 nM
16,COc1ccc(S(=O)(=O)N(CC(C)C)C[C@@H](OP(=O)(O)O)[C@H](Cc2ccc(OCP(=O)(Oc3ccccc3)O[C@@H](C)C(=O)OC(C)C)cc2)NC(=O)O[C@H]2CO[C@H]3OCC[C@H]32)cc1 (some centres unmarked),< 50 nM
17,CCOC(=O)C(CC)OP(=O)(COc1ccc(CC(NC(=O)OC2COC3OCCC23)C(O)CN(CC(C)C)S(=O)(=O)c2ccc(OC)cc2)cc1)Oc1ccccc1 [drawing 659 R1=OPh R2=(R)Hba-Et],< 50 nM
18,COc1ccc(S(=O)(=O)N(CC(C)C)C[C@@H](O)[C@H](Cc2ccc(OCP(=O)(Oc3ccccc3)O[C@@H](C)C(=O)OCCN3CCCCC3)cc2)NC(=O)O[C@H]2CO[C@H]3OCC[C@H]32)cc1 (stereo partly drawn) [drawing 659 R1=OPh R2=(S)Lac-EtPip],50 to 500 nM
19,COc1ccc(S(=O)(=O)N(CCN(C)C)CC(O)C(Cc2ccc(O)cc2)NC(=O)OC2COC3OCCC23)cc1 (centres unmarked),50 to 500 nM
20,CCOP(=O)(CCN1CCN(CC(NC(=O)OC2COC3OCCC23)C(O)CN(CC(C)C)S(=O)(=O)c2ccc(OC)cc2)CC1)OCC (centres unmarked),50 to 500 nM
21,"CCCCOC(=O)C(CC)NP(=O)(COc1ccc(CC(NC(=O)OC2COC3OCCC23)C(O)CN(CC(C)C)S(=O)(=O)c2ccc(OC)cc2)cc1)Oc1ccccc1 (single isomer, unassigned) [drawing 657 R1=OPh R2=Aba-Bu]",< 50 nM and 50 to 500 nM
22,"CCOC(=O)C(CC)NP(=O)(COc1ccc(C[C@H](NC(=O)O[C@H]2CO[C@H]3OCC[C@H]32)[C@H](O)CN(CC(C)C)S(=O)(=O)c2ccc(OC)cc2)cc1)Oc1ccccc1 (single isomer, unassigned) [drawing 657 R1=OPh R2=Aba-Et]",< 50 nM and 50 to 500 nM
23,COc1ccc(S(=O)(=O)N(CC(C)C)C[C@@H](O)[C@H](Cc2ccc(OCP(=O)(Oc3ccccc3)Oc3ccccc3)cc2)NC(=O)O[C@H]2CO[C@H]3OCC[C@H]32)cc1 [drawing 651 R1=OPh R2=OPh],< 50 nM
24,CCCCOC(=O)C(C)OP(=O)(COc1ccc(C[C@H](NC(=O)O[C@H]2CO[C@H]3OCC[C@H]32)[C@H](O)CN(CC(C)C)S(=O)(=O)c2cccc(N)c2)cc1)Oc1ccccc1 (some centres unmarked) [drawing 764],50 to 500 nM
25,CC(C)CN(C[C@@H](O)[C@H](Cc1ccc(OCP(=O)(OCc2ccccc2)OCc2ccccc2)cc1)NC(=O)O[C@H]1CO[C@H]2OCC[C@H]21)S(=O)(=O)c1ccc(C(F)(F)F)cc1,< 50 nM
26,COc1ccc(S(=O)(=O)N(CC(C)C)C[C@@H](O)[C@H](Cc2ccc(OCP(=O)(OCOC(=O)OC(C)C)OCOC(=O)OC(C)C)cc2)NC(=O)O[C@H]2CO[C@H]3OCC[C@H]32)cc1 [drawing 651 R1=OPoc R2=OPoc],500 to 5000 nM
27,CCOC(=O)C(CC)OP(=O)(COc1ccc(CC(NC(=O)OC2COC3OCCC23)C(O)CN(CC(C)C)S(=O)(=O)c2ccc(OC)cc2)cc1)Oc1ccccc1 [drawing 659 R1=OPh R2=(S)Hba-Et],< 50 nM

# Tested on: mutant HIV-1 with I84V/L90M mutations in the protease gene
# Experiment: not given
# Assay type: cell-based
# Conditions: I84V/L90M mutant
row,SMILES,I84V/L90M fold change
1,"COc1ccc(S(=O)(=O)N(CC(C)C)C[C@@H](O)[C@H](Cc2ccc(OCP(=O)(Oc3ccccc3)Oc3ccccc3)cc2)NC(=O)OC2CCOC2)cc1 (some centres unmarked) [OMe, phenol]",+ (>3 to ≦10)
2,COc1ccc(S(=O)(=O)N(CCN(C)C)CC(O)C(Cc2ccc(OCc3ccccc3)cc2)NC(=O)OC2COC3OCCC23)cc1 (centres unmarked),— (≦3)
3,COc1ccc(S(=O)(=O)N(CC(C)C)CC(O)C(Cc2ccc(OCc3ccccc3)cc2)NC(=O)OC2COC3OCCC23)cc1 (centres unmarked),— (≦3)
4,CC(C)CN(CC(O)C(Cc1ccc(OCP(=O)(OCc2ccccc2)OCc2ccccc2)cc1)NC(=O)OC1COC2OCCC12)S(=O)(=O)c1ccc(OC(F)(F)F)cc1 (centres unmarked),+ (>3 to ≦10)
5,CCOP(=O)(COc1cc(S(=O)(=O)N(CC(C)C)CC(O)C(Cc2ccccc2)NC(=O)OC2COC3OCCC23)ccc1OC)OCC (centres unmarked),+ (>3 to ≦10)
6,Cc1cccc(C)c1OCC(=O)NC(Cc1ccc(OCP(=O)(O)O)cc1)C(O)CN(CC(C)C)S(=O)(=O)c1ccc(N)cc1 (centres unmarked),+ (>3 to ≦10)
7,Cc1ccc(C(=O)NC(Cc2ccc(OCP(=O)(O)O)cc2)C(O)CN(CC(C)C)S(=O)(=O)c2ccc(N)cc2)cc1O (centres unmarked),+ (>3 to ≦10)
8,CC(C)CN(CC(O)C(Cc1ccc(OCP(=O)(OCc2ccccc2)OCc2ccccc2)cc1)NC(=O)OC1COC2OCCC12)S(=O)(=O)c1ccc(F)cc1 (centres unmarked),+ (>3 to ≦10)
9,"COc1ccc(S(=O)(=O)N(CC(C)C)C[C@@H](O)[C@H](Cc2ccc(OCP(=O)(O)O)cc2)NC(=O)OC2CCOC2)cc1 (some centres unmarked) [OMe, OH]",+++ (>30)
10,COc1ccc(S(=O)(=O)N(CCN2CCOCC2)CC(O)C(Cc2ccc(OCP(=O)(O)O)cc2)NC(=O)OC2COC3OCCC23)cc1 (centres unmarked),+ (>3 to ≦10)
11,"CC(C)CN(C[C@@H](O)[C@H](Cc1ccc(OCP(=O)(Oc2ccccc2)Oc2ccccc2)cc1)NC(=O)OC1CCOC1)S(=O)(=O)c1ccc(N)cc1 (some centres unmarked) [NH2, phenol]",— (≦3)
12,COc1ccc(S(=O)(=O)N(CC(O)C(Cc2ccccc2)NC(=O)OC2COC3OCCC23)CC(C)(C)CO)cc1 (centres unmarked),+++ (>30)
13,CC(C)CN(CC(O)C(Cc1ccccc1)NC(=O)OC1COC2OCCC12)S(=O)(=O)c1cccc(O)c1 (centres unmarked),+ (>3 to ≦10)

# Same assay, conditions: fold difference in EC50, mutant vs. wild type
row,SMILES,I84V/L90M fold change
1,CCCCOC(=O)C(CC(C)C)NP(=O)(COc1ccc(CC(NC(=O)OC2COC3OCCC23)C(O)CN(CC(C)C)S(=O)(=O)c2ccc(OC)cc2)cc1)NC(CC(C)C)C(=O)OCCCC (centres unmarked) [drawing 655 R1=Leu-Bu R2=Leu-Bu],+ (>3 to ≦10)
2,CCCCOC(=O)C(CC)NP(=O)(COc1ccc(CC(NC(=O)OC2COC3OCCC23)C(O)CN(CC(C)C)S(=O)(=O)c2ccc(OC)cc2)cc1)NC(CC)C(=O)OCCCC (centres unmarked) [drawing 655 R1=Aba-Bu R2=Aba-Bu],+ (>3 to ≦10)
3,COc1ccc(S(=O)(=O)N(CC(C)C)CC(O)C(CC2=CCN(CCP(=O)(OCc3ccccc3)OCc3ccccc3)CC2)NC(=O)OC2COC3OCCC23)cc1 (centres unmarked),+ (>3 to ≦10)
4,CCOP(=O)(Cc1ccc(NCC(NC(=O)OC2COC3OCCC23)C(O)CN(CC(C)C)S(=O)(=O)c2ccc(OC)cc2)cc1)OCC (centres unmarked),+ (>3 to ≦10)
5,CCOC(=O)C(C)OP(=O)(COc1ccc2c(c1)CCN(CC(NC(=O)OC1COC3OCCC13)C(O)CN(CC(C)C)S(=O)(=O)c1ccc(OC)cc1)C2)Oc1ccccc1 (centres unmarked),+ (>3 to ≦10)
6,CCOP(=O)(Cc1ccc(N(C)CC(NC(=O)OC2COC3OCCC23)C(O)CN(CC(C)C)S(=O)(=O)c2ccc(OC)cc2)cc1)OCC (centres unmarked),+ (>3 to ≦10)
7,COc1ccc(S(=O)(=O)N(CC(C)C)CC(O)C(CNc2ccc(CP(=O)(O)O)cc2)NC(=O)OC2COC3OCCC23)cc1 (centres unmarked),+ (>3 to ≦10)
